Test results from patent publication US8568968B2, “EGFR polymorphisms predict gender-related treatment” (University of Southern California, priority 2009, dated 2013).
“And” between values parts separate entries of the source, which are not always exact repeats. Equal values may be shown once.

Tested on: metastatic colon cancer patients
Assay: Overall survival of metastatic colon cancer patients treated with 5-FU-based chemotherapy, by gender and EGFR genotype
Format: in vivo, human
Conditions: for RR (95% CI): relative risk
From the text: A total of 318 patients with metastatic colon cancer treated at the University of Southern California/Norris Comprehensive Cancer Center (USC/NCCC) or the Los Angeles County/University of Southern California Medical Center (LAC/USCMC), between 1992 and 2003, were eligible for the present study. This population included only metastatic or recurrent colon cancer patients. All patients in this study signed informed consents and enrolled in protocols designed to study the molecular determinants of colon cancer. These protocols permitted blood collection (USC protocol OS-99-10) and/or tissue collection (USC protocol 0S-00-15).
All patients were entered and followed in an institutional database. Patient information was collected through database review and retrospective chart review when additional patient information was necessary. A large number of the patients (69%) were initially treated at an outside institution until, because of failure to respond to prior treatment, they were referred to USC/NCCC or LAC/USCMC for subsequent treatments. The end point of this study, OS, was determined by calculating the difference between the date of first treatment at USC/NCCC or LAC/USC and the date of last follow-up appointment or date of death from disease.
All 318 patients were enrolled in at least one chemotherapy clinical trial while being treated at this institution (USC/NCCC or LAC/USCMC). All patients were treated with 5-fluorouracil (5-FU)-based chemotherapy regimens, and response to chemotherapy was not investigated as an end point for this study. This is a heavily pretreated cohort with 20 (6%) patients treated with one line of chemotherapy, 19 (6%) patients treated with two different chemotherapy regimens, 183 (58%) patients treated with three chemotherapy regimens, and 96 (30%) patients treated with four or more chemotherapy regimens. […] All 318 patients received treatment with 5-FU, 298 (94%) patients received treatment with 5-FU/irinotecan (CPT-11), and 279 (88%) patients received treatment with 5-FU/oxaliplatin.
The primary end point of this study is OS. The OS was determined by calculating the difference between the date of first treatment at USC/NCCC or LAC/USC and the date of last follow-up appointment or date of death. Patients who were alive at the last follow-up were censored at that time.
The associations between sex and other demographic and clinical characteristics were examined using contingency tables and the Fisher exact test. The dominant code for HER-1 R497K was used for the association with OS, and patients who carried heterozygous (Arg/Lys) and homozygous mutant genotypes (Lys/Lys) were grouped together. EGFR intron 1 (CA)n repeat polymorphism was categorized into two groups: both alleles with <20 (CA)n (SEQ ID NO: 3) and any alleles with ≧20 (CA)n (SEQ ID NO: 4) as described previously (19). The associations of HER-1 R497K and EGFR intron 1 (CA)n repeat polymorphisms with OS were analyzed individually using Kaplan-Meier plots and the log-rank test. The independent effects of two EGFR polymorphisms on OS were examined in multivariable analysis using Cox proportional hazards model. Interactions between sex and EGFR polymorphisms were examined using stratified models and were tested by comparing corresponding likelihood ratio statistics between the baseline and nested Cox proportional hazards models that included the multiplicative product terms (20).

Q: Which “Median survival (95% CI)” value (female, EGFR intron 1 any (CA)n repeats ≧20) does the source give for `O=c1[nH]cc(F)c(=O)[nH]1` [5-FU, 5-fluorouracil] here?
A: 14.1 mo and 14.1 (12.1-18.3) mo

Q: What about the “Median survival (95% CI)” value (female, EGFR intron 1 both (CA)n repeats <20) of the same compound?
A: 17.6 mo and 17.9 mo and 17.6 (13.7-22.7) mo

Q: What about the “Median survival (95% CI)” value (female, HER-1 R497K Arg/Arg, 5-FU-based chemotherapy regimens) of the same compound?
A: 16.0 (13.5-19.2) mo

Q: What about the “Median survival (95% CI)” value (female, HER-1 R497K Lys allele (Arg/Lys or Lys/Lys)) of the same compound?
A: 14.0 (11.2-17.9) mo

Q: And the “Median survival (95% CI)” value (female, combined: Arg/Arg and (CA)n <20)?
A: 15.7 (11.5-41.4) mo

Q: What about the “Median survival (95% CI)” value (female, combined: Arg/Arg and (CA)n ≧20 or Lys and (CA)n <20) of the same compound?
A: 17.3 (14.0-19.2) mo

Q: And the “Median survival (95% CI)” value (female, combined: Lys and (CA)n ≧20)?
A: 12.2 (7.7-16.7) mo

Q: What about the “RR (95% CI)” value (female, Arg/Arg and (CA)n ≧20 or Lys and (CA)n <20 vs Arg/Arg and (CA)n <20 (reference)) of the same compound?
A: 0.93 (0.56-1.54)

Q: What about the “RR (95% CI)” value (female, Lys allele vs Arg/Arg (reference), Cox model) of the same compound?
A: 1.41 (0.94-2.10)

Q: And the “RR (95% CI)” value (female, Lys and (CA)n ≧20 vs Arg/Arg and (CA)n <20 (reference))?
A: 1.90 (1.10-3.29)

Q: And the “RR (95% CI)” value (female, any (CA)n ≧20 vs both <20 (reference))?
A: 1.37 (0.93-2.01)

Q: What about the “Median survival (95% CI)” value (male, EGFR intron 1 any (CA)n repeats ≧20) of the same compound?
A: 13.1 mo and 13.1 (10.7-16.0) mo

Q: And the “Median survival (95% CI)” value (male, EGFR intron 1 both (CA)n repeats <20)?
A: 10.3 mo and 10.4 mo and 10.3 (8.3-15.5) mo

Q: And the “Median survival (95% CI)” value (male, HER-1 R497K Arg/Arg, 5-FU-based chemotherapy regimens)?
A: 10.3 (9.0-13.5) mo

Q: And the “Median survival (95% CI)” value (male, HER-1 R497K Lys allele (Arg/Lys or Lys/Lys))?
A: 13.7 (10.8-19.1) mo

Q: And the “Median survival (95% CI)” value (male, combined: Arg/Arg and (CA)n <20)?
A: 8.9 (7.3-11.4) mo

Q: What about the “Median survival (95% CI)” value (male, combined: Arg/Arg and (CA)n ≧20 or Lys and (CA)n <20) of the same compound?
A: 13.1 (10.3-17.5) mo

Q: And the “Median survival (95% CI)” value (male, combined: Lys and (CA)n ≧20)?
A: 13.6 (10.7-19.5) mo

Q: What about the “RR (95% CI)” value (male, Arg/Arg and (CA)n ≧20 or Lys and (CA)n <20 vs Arg/Arg and (CA)n <20 (reference)) of the same compound?
A: 0.84 (0.57-1.25)

Q: And the “RR (95% CI)” value (male, Lys allele vs Arg/Arg (reference), Cox model)?
A: 0.64 (0.46-0.89)

Q: And the “RR (95% CI)” value (male, Lys and (CA)n ≧20 vs Arg/Arg and (CA)n <20 (reference))?
A: 0.62 (0.39-0.97)

Q: And the “RR (95% CI)” value (male, any (CA)n ≧20 vs both <20 (reference))?
A: 0.92 (0.67-1.28)
